Source: ChEMBL document CHEMBL3507680, “University of Dundee, Gates Library screen for HepG2 cell viability”

Test: Human HepG2 cell viability assay in 384 well format
Type: toxicity, cell-based
Parameters: dose 125 nL, time 70.5 hour; cytotoxicity at 70.5 h: concentration not given beside the values
Details: HepG2 cells, read-out: Inhibition

| Compound | cytotoxicity at 70.5 h |
| --- | --- |
| Cn1cccc1C(=O)NCc1cnc2n1CCN(c1ccccn1)C2 | -3.68% |
| Cc1noc(C)c1CN1CCCC2(C1)CN(c1nncs1)CCO2 (stereo not drawn) | -7.2% |
| CC(=O)N1CC(=O)N(c2cnn(C)c2)CC12CCN(Cc1nccs1)C2 (stereo not drawn) | -7.04% |
| N#Cc1cccc(CN2CCn3cc(CNC(=O)C4CCC4)nc3C2)c1 | -6.27% |
| Cn1cccc1C(=O)N[C@@H]1CN(S(C)(=O)=O)[C@@H]2COC[C@@H]21 | -8.37% |
| CN(C)C(=O)N1CCc2c(nnn2C)C1COCC1CC1 (stereo not drawn) | -2.28% |
| COCc1ncn2c1CN(S(=O)(=O)c1cccs1)CCC2 | 10.6% |
| CCOCc1ncn2c1CN(S(=O)(=O)c1cccs1)CCC2 | 12.5% |
| O=C(CC1CC1)N[C@@H]1CN(Cc2ccoc2)C[C@@H]2CCCO[C@@H]21 | 14% |
| CS(=O)(=O)NC[C@H]1OC[C@@H]2CCN(C(=O)c3cccnc3)C[C@@H]21 | -0.643% |
| CCOCc1ncn2c1CN(S(=O)(=O)c1cccs1)CC2 | -0.803% |
| O=C(CC1CC1)N[C@@H]1CN(Cc2nccs2)C[C@@H]2CCCO[C@@H]21 | -2.11% |
| O=C(NCc1ccco1)[C@@]12CCO[C@@H]1CCN(Cc1nccs1)C2 | 1.38% |
| COc1ccc(CN2C[C@@H]3CCCO[C@@H]3[C@H](NC(=O)CC3CC3)C2)cc1 | 3.18% |
| O=S(=O)(c1ccc(F)cc1)N1CCCn2cnc(CN3CCCC3)c2C1 | 3.23% |
| CCN1C(=O)C2(CCOCC2)c2cc(NC(=O)c3cccn3C)ccc21 | -0.784% |
| Cc1nnn2c1COCC(CNC(=O)c1ccnnc1)C2 (stereo not drawn) | -0.292% |
| COc1cc(N2C[C@H]3OCC[C@H]3[C@H](C(=O)NC3CC3)C2)ncn1 | -4.39% |
| Cc1ccc(N2CCCc3sc(C(=O)NCc4cccnc4)nc32)nn1 | -10.4% |
| CN(C)c1nccc(N2CCO[C@H]3CN(CC4CCOCC4)C[C@H]32)n1 | -7.1% |
| CCn1ncc2c1C(COCC1CC1)CN(C(=O)c1cccs1)C2 (stereo not drawn) | 6.27% |
| Cc1oncc1C(=O)N1CCC2(CCN(Cc3ccccn3)C2=O)C1 (stereo not drawn) | -0.113% |
| CCC(C)NC(=O)N1CCCn2cnc(CO)c2C1 (stereo not drawn) | -7.63% |
| CN1C(=O)C[C@@H]2[C@@H]1CCN2S(=O)(=O)Cc1ccccc1 | -3.44% |
| CCN1Cc2c(C(=O)NCC3CC3)ncn2-c2ccccc2S1(=O)=O | -9.23% |
| COCCN1C[C@H]2[C@@H](C1)N(Cc1ccc(C)o1)CC[C@H]2OC | -5.94% |

| Compound | cytotoxicity at 70.5 h |
| --- | --- |
| CCN1CC2(CC1=O)CN(C(C)=O)CCN(C(=O)c1ccco1)C2 (stereo not drawn) | -9.45% |
| Cc1csc(CN2CC[C@H]3C[C@H](c4nnc(C)[nH]4)O[C@@H]3C2)n1 | 20.1% |
| CCOCC1CN(Cc2ccoc2)Cc2ncn(CC3CC3)c21 (stereo not drawn) | 5.39% |
| COCCO[C@H]1CCN(C(=O)c2ccno2)[C@H]1Cc1cnn(C)c1 | -0.314% |
| CCN1CC2(CC1=O)CN(Cc1cccs1)CCN(C(=O)C(C)C)C2 (stereo not drawn) | 2.16% |
| COCCN1C[C@@H]2CN(c3ncccn3)C[C@@H]2C1=O | -7.68% |
| CNC(=O)N1CC[C@H]2N(C)CC[C@@]2(C(=O)Nc2ccccc2)CC1 | -4.01% |
| O=C(C1CCOCC1)N1CCO[C@H]2[C@@H](OCc3ccncc3)CC[C@@H]21 | -4.02% |
| Cc1noc([C@H]2COC[C@H]3CN(C(=O)Cc4ccc(F)cc4)C[C@H]32)n1 | -2.96% |
| CCC1=N[C@@]2(CC[C@@H]3CN(C(=O)Nc4ccc(F)cc4)C[C@@H]32)C(=O)N1 | 0.571% |
| CCN1CCC2(CC1)CC(Nc1ncccn1)CO2 (stereo not drawn) | -1.36% |
| O=C(c1ccncc1F)N1CCN(CC2CC2)c2ncccc2C1 | 24.5% |
| COCCN1CCN(C(=O)c2ccncc2F)Cc2cccnc21 | -12.3% |
| CC(C)CS(=O)(=O)N1C[C@H]2C[C@H](C(=O)NCc3ccccc3)[C@@H](C1)O2 | -7.71% |
| O=C(N[C@H]1CN[C@H]2CCCO[C@H]21)c1ccno1 | -4.14% |
| O=C(N[C@H]1CN[C@H]2CCCO[C@H]21)c1cscn1 | -4.74% |
| CN(C)Cc1cncc2c1CCN(Cc1cnn(C)c1)C2 | -0.555% |
| Cn1nnc2c1CCN(C(=O)C1CCC1)C2COCCN1CCCC1 (stereo not drawn) | -2.83% |
| O=C(NCc1cn2c(n1)CN(Cc1cccc(F)c1)CC2)C1CCC1 | -3.08% |
| O=C(N[C@@H]1CN(C2CCCC2)C[C@@H]2CCCO[C@@H]21)c1cnccn1 | -12.5% |
| Cn1cccc1C(=O)N[C@@H]1CN(Cc2ccsc2)[C@@H]2COC[C@@H]21 | -10.2% |
| CN1CCc2ncc(CNC(=O)c3cccn3C)n2CC1 | -7.23% |
| O=C(CC1CC1)N[C@@H]1CN(c2ncccn2)C[C@@H]2CCCO[C@@H]21 | -7.21% |
| Cn1cccc1C(=O)NCc1cnc2n1CCN(CC1CC1)C2 | 3.59% |
| O=C([C@H]1C[C@H]2OCC[C@H]2N(C(=O)c2ccncc2)C1)N1CCCC1 | -5.12% |
| Cc1cc(CN2C[C@@H]3CCCO[C@@H]3[C@H](NS(C)(=O)=O)C2)no1 | -1.78% |

| Compound | cytotoxicity at 70.5 h |
| --- | --- |
| O=C1[C@H]2CN(Cc3ccc(F)cc3)C[C@H]2CN1c1cncnc1 | 0.584% |
| CCOCC1CN(S(=O)(=O)N(C)C)Cc2cnn(C)c21 (stereo not drawn) | -6.39% |
| CN(C)CC1CN(C(=O)NCc2ccccc2)Cc2nccn2C1 (stereo not drawn) | -5.97% |
| O=C1COC2(CCN(Cc3cccs3)CC2)CN1c1ccccc1 | -4.47% |
| CN(C)c1nccc(N2CCO[C@H]3CN(Cc4ccsc4)C[C@H]32)n1 | -6% |
| O=C(C1CCOCC1)N1C[C@@H]2C[C@@H](c3nc(C4CC4)cs3)O[C@@H]2C1 | 8.69% |
| O=C1COC2(CCN(CC3CC3)CC2)CN1c1ccccc1 | -9.15% |
| Cc1ccc(CN2CCc3c(C(=O)N(C)C)nn(C)c3C2)s1 | -5.06% |
| CS(=O)(=O)N1CCC2(CN(C(=O)c3cccnc3)C2)C1 | -2.66% |
| c1ccc(-c2ccc3nc(C4CCN(CC5CC5)CC4)nn3c2)cc1 | -6.34% |
| O=C1C[C@H]2[C@@H](CCN2C(=O)c2ccccc2)N1CCN1CCOCC1 | -5.41% |
| COCc1nn(C(C)C)c2c1CCN(Cc1ccc(C)s1)C2 | -8.69% |
| O=C(C1CCOCC1)N1C[C@@H]2[C@@H](C1)OCC(=O)N2Cc1ccncc1 | -5.97% |
| O=C(NC[C@H]1OC[C@@H]2CCN(Cc3ccco3)C[C@@H]21)c1ccsc1 | -5.61% |
| Cc1ncnc2c1CCN(Cc1ccc3c(c1)OCO3)CC2 | -3.06% |
| COc1ccc(CN2CCOC3(CCCN(c4nnc(C)o4)C3)C2)cc1 (stereo not drawn) | -2.27% |
| CS(=O)(=O)N1CCOCC2(CCN(C(=O)c3cccnc3)CC2)C1 | -7.84% |
| CN(C)C(=O)N1C[C@@H]2CCCO[C@@H]2[C@H](N(C)Cc2ccco2)C1 | -11.5% |
| CCOCC1CN(Cc2ccoc2)Cc2nn(CC3CC3)cc21 (stereo not drawn) | 5.44% |
| CCN1CC2(CC1=O)CN(Cc1cnn(C)c1)CCN(C(C)=O)C2 (stereo not drawn) | -0.943% |
| O=C1COC2(CCN(Cc3ccc(F)cc3)CC2)CN1 | 3.53% |
| CCN1CCC(c2nc3ccc(NC(C)C)cn3n2)CC1 | -0.678% |
| CCn1nnc2c1C(COC)CN(Cc1cccs1)C2 (stereo not drawn) | 1.81% |
| CCCS(=O)(=O)N1CCC2(CC1)CN(c1ccccn1)CCO2 | 23.8% |
| O=C(C[C@@H]1COC[C@H]2CN(Cc3ccc(F)cc3)C[C@@H]12)N1CCOCC1 | 21.2% |
| COc1ccc(CN2CC[C@@H](O)[C@@H]2Cc2ccccc2)cc1 | 38.7% |

| Compound | cytotoxicity at 70.5 h |
| --- | --- |
| O=C(N1CCOCC1)[C@@]12CCO[C@@H]1CCN(CC1CCCCC1)C2 | 27.8% |
| Cc1ccc(CN2CCC3(CC2)OC(C(=O)N(C)C)c2ccccc23)o1 (stereo not drawn) | -13.3% |
| Cc1noc(C)c1CN1CCCC2(C1)CN(Cc1nccn1C)CCO2 (stereo not drawn) | -8.03% |
| c1csc(CN2CCCC3(COCCN(Cc4c[nH]nn4)C3)C2)c1 (stereo not drawn) | 1.75% |
| CN(C)CCOCC1CN(C(=O)N2CCCC2)Cc2ccnn2C1 (stereo not drawn) | -5.66% |
| CN(C)CCNC(=O)c1nc2c(o1)CN(C(=O)c1cccnc1)C2 | 10.9% |
| Cn1ccnc1CN1CCN2C[C@H](Oc3cccc(F)c3)C[C@H]2C1 | 11.9% |
| CN(C)CCN1CCOCC2(CCCN(C(=O)c3ccccn3)C2)C1 (stereo not drawn) | 0.371% |
| CN(C)CCN1CCOCC2(CCCN(C(=O)c3ccoc3)C2)C1 (stereo not drawn) | 1.59% |
| O=C(CC1CC1)N[C@@H]1CN(Cc2ccccn2)C[C@@H]2CCCO[C@@H]21 | -0.597% |
| COCc1cncc2c1CCN(Cc1cnn(C)c1)C2 | 10.6% |
| O=C(C1CC=CC1)N1CCc2c(COCc3ccncc3)cncc2C1 | -10.9% |
| Cc1ccc(N2CCCC3(COCCN(c4nccs4)C3)C2)nn1 (stereo not drawn) | -9.95% |
| Cc1ncsc1CN1C[C@H](C(=O)N2CCCO2)[C@@H]2CCO[C@@H]2C1 | -0.785% |
| Cn1ccc(C(=O)NC2CCC23CCN(Cc2cccnc2)CC3)c1 (stereo not drawn) | -7.38% |
| c1csc(CN2C[C@@H]3OCCN(CC4CCCO4)[C@@H]3C2)c1 (stereo partly drawn) | -7.54% |
| Cc1cccc(Cn2c3c(ccc2=O)CCN(Cc2ccoc2)CC3)n1 | -9.52% |
| c1cncc(CO[C@H]2CC[C@H]3[C@@H]2OCCN3C2CCOCC2)c1 | -2.22% |
| Cc1csc(CN2CCC[C@]3(C[C@H](Oc4ccccn4)CO3)C2)n1 | 16% |
| Cc1nc(CN2CCOCC3(CCN(c4cccnc4)CC3)C2)cs1 | 2.23% |
| COCC1c2c(cnn2C)CCN1Cc1ccc(F)cc1 (stereo not drawn) | -0.871% |
| c1cnc(N2CCN(C3CCC[C@@H]4CN(CC5CC5)C[C@H]34)CC2)nc1 (stereo partly drawn) | -1.3% |
| Cc1cccc(CN2CCN3C[C@H](Oc4cccnc4)C[C@H]3C2)n1 | -1.7% |
| Cn1ccnc1CN1CCN2C[C@H](OCc3cccnc3)C[C@H]2C1 | -2.68% |
| COCCN1C[C@@H]2[C@@H](OC)CCN(Cc3cccc(C)n3)[C@@H]2C1 | -8.62% |
